The record followed here is patent US6656956B2, “Benzimidazole derivatives, processes for preparing them and their use as pharmaceutical compositions” (Boehringer Ingelheim Pharma KG, priority 2001, dated 2003).

Where a name gives a salt, the structure may show the parent alone.

For the experiment, the target named is T1, rh beta tryptase (Homo sapiens, UniProt Q15661).
T1 construct: purchased Promega
T1 sequence (Q15661 31-275): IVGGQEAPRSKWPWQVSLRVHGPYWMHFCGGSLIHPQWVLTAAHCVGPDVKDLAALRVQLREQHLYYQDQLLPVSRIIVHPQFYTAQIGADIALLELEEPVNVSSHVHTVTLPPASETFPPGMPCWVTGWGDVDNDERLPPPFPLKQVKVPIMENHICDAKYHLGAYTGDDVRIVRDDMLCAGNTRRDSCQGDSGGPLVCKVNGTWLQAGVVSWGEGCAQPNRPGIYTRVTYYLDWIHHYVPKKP
The experiment is described as follows: tryptase inhibition in vitro test (cleavage of N-p-tosyl-Gly-Pro-Lys-para-nitroaniline, p-nitroaniline measured at 405 nm). Format: biochemical. As to conditions: rh beta tryptase 0.91 U/ml, substrate 0.6 mM, Tris HCl buffer with calcium and heparin, pH 7.4, 37° C., 5 minutes incubation; read-out: Tryptase-inhibiting activity. The protocol: The compounds according to the invention are characterised by their tryptase-inhibiting activity. This ability to inhibit tryptase was investigated using the test described below.
The measurement is carried out in Tris HCl buffer (100 mM), which additionally contains calcium (5 mM) and heparin ([…]), at pH 7.4. The standard used is rh beta tryptase which may be obtained commercially from Promega, for example. The substrate used is N-p-tosyl-Gly-Pro-Lys-para-nitroaniline in a concentration of 0.6 mM. The substrate is digested with tryptase to form p-nitroaniline which can be measured at 405 nm. Usually, an incubation period of 5 minutes and an incubation temperature of 37° C. are chosen. The enzyme activity used is 0.91 U/ml. The measurements are carried out in an Autoanalyser (Cobas Bio) made by Hofmann LaRoche. The potential inhibitory substances are used in concentrations of 10 μM in the screening, the inhibition of the tryptase being given in percent. The IC50 is determined at over 70% inhibition (concentration at which 50% of the enzyme activity is inhibited). After 5 minutes' pre-incubation of the potential inhibitory substances, the substrate is added to start the reaction, the formation of p-nitroaniline being taken as a measurement of the enzyme activity after 5 minutes, after testing the linearity.
As to `CN(CCC(=O)O)C1CCN(CC(=O)N(Cc2cccc3ccccc23)c2ccc3c(c2)nc(CCc2ccc(C(=N)N)cc2)n3C)CC1` [Example 25, N-{2-[2-(4-Amidinophenyl)-ethyl]-1-methyl-benzimidazol-5-yl}-N-[naphth-1-ylmethyl]-2-[4-(N-methyl-N-propionic acid)-piperid-1-yl]-acetamide, diacetate], the IC50 was in the range of 31 to 1000 nM.

`Cn1c(CCc2ccc(C(=N)N)cc2)nc2cc(N(Cc3cccc4ccccc34)C(=O)CN3CCC(Nc4cccnc4)CC3)ccc21` [Example 26, N-{2-[2-(4-Amidinophenyl)-ethyl]-1-methyl-benzimidazol-5-yl}-N-[naphth-1-ylmethyl]-2-[4-(3-pyridylamino)-piperid-1-yl]-acetamide, dihydrochloride]: the IC50 was 0.5 to 3 nM.

`Cn1c(CCc2ccc(C(=N)N)cc2)nc2cc(N(Cc3cccc4ccccc34)C(=O)CN3CCC(Nc4ccncc4)CC3)ccc21` [Example 27, N-{2-[2-(4-Amidinophenyl)-ethyl]-1-methyl-benzimidazol-5-yl}-N-[naphth-1-ylmethyl]-2-[4-(4-pyridylamino)-piperid-1-yl]-acetamide, dihydrochloride]: the IC50 lay in the range of 4 to 30 nM.

As to `CN(C(=O)CN1CCC(Nc2ccccn2)CC1)c1ccc2c(c1)nc(CCc1ccc(C(=N)N)cc1)n2C` [Example 28, N-{2-[2-(4-Amidinophenyl)-ethyl]-1-methyl-benzimidazol-5-yl}-N-methyl-2-[4-(2-pyridylamino)-piperid-1-yl]-acetamide, dihydrochloride], the IC50 was 4 to 30 nM.

Consider `CN(C(=O)CN1CCC(NCc2ccccn2)CC1)c1ccc2c(c1)nc(CCc1ccc(C(=N)N)cc1)n2C` [Example 29, N-{2-[2-(4-Amidinophenyl)-ethyl]-1-methyl-benzimidazol-5-yl}-N-methyl-2-[4-(2-pyridylmethylamino)-piperid-1-yl]-acetamide, dihydrochloride], for which the IC50 is 31 to 1000 nM.

With `CN(C(=O)CN1CCC(Nc2ccc3ccccc3c2)CC1)c1ccc2c(c1)nc(CCc1ccc(C(=N)N)cc1)n2C` [Example 30, N-{2-[2-(4-Amidinophenyl)-ethyl]-1-methyl-benzimidazol-5-yl}-N-methyl-2-[4-(2-naphthylamino)-piperid-1-yl]-acetamide, dihydrochloride], the IC50 lay within 0.5 to 3 nM.

On to `CN(C(=O)CN1CCC(Nc2ccccc2Cl)CC1)c1ccc2c(c1)nc(CCc1ccc(C(=N)N)cc1)n2C` [Example 31, N-{2-[2-(4-Amidinophenyl)-ethyl]-1-methyl-benzimidazol-5-yl}-N-methyl-2-[4-(2-chlorophenylamino)-piperid-1-yl]-acetamide, dihydrochloride], for which the IC50 lay within 0.5 to 3 nM.

`CN(C(=O)CN1CCC(Nc2ccc(Cl)cc2Cl)CC1)c1ccc2c(c1)nc(CCc1ccc(C(=N)N)cc1)n2C` [Example 32, N-{2-[2-(4-Amidinophenyl)-ethyl]-1-methyl-benzimidazol-5-yl}-N-methyl-2-[4-(2,4-dichlorophenylamino)-piperid-1-yl]-acetamide, dihydrochloride]: the IC50 lay in the range of 0.5 to 3 nM.

In the case of `CN(C(=O)CN1CCC(Nc2ccc(F)cc2Cl)CC1)c1ccc2c(c1)nc(CCc1ccc(C(=N)N)cc1)n2C` [Example 33, N-{2-[2-(4-Amidinophenyl)-ethyl]-1-methyl-benzimidazol-5-yl}-N-methyl-2-[4-(2-chloro-4-fluorophenylamino)-piperid-1-yl]-acetamide, dihydrochloride], the IC50 was in the range of 0.5 to 3 nM.

For `CN(C(=O)CN1CCC(N(C)c2ccc3ccccc3c2)CC1)c1ccc2c(c1)nc(CCc1ccc(C(=N)N)cc1)n2C` [Example 34, N-{2-[2-(4-Amidinophenyl)-ethyl]-1-methyl-benzimidazol-5-yl}-N-methyl-2-[4-(2-naphthyl-N-methylamino)-piperid-1-yl]-acetamide, dihydrochloride], the IC50 fell in the range of 4 to 30 nM.

On to `CN(C(=O)CN1CCC(Nc2ccccc2Br)CC1)c1ccc2c(c1)nc(CCc1ccc(C(=N)N)cc1)n2C` [Example 35, N-{2-[2-(4-Amidinophenyl)-ethyl]-1-methyl-benzimidazol-5-yl}-N-methyl-2-[4-(2-bromophenylamino)-piperid-1-yl]-acetamide, dihydrochloride], for which the IC50 is 0.5 to 3 nM.

On to `CN(C(=O)CN1CCC(Nc2ccccc2F)CC1)c1ccc2c(c1)nc(CCc1ccc(C(=N)N)cc1)n2C` [Example 36, N-{2-[2-(4-Amidinophenyl)-ethyl]-1-methyl-benzimidazol-5-yl}-N-methyl-2-[4-(2-fluorophenylamino)-piperid-1-yl]-acetamide, dihydrochloride], for which the IC50 was in the range of 0.5 to 3 nM.

As for `CN(C(=O)CN1CCC(Nc2ccccc2I)CC1)c1ccc2c(c1)nc(CCc1ccc(C(=N)N)cc1)n2C` [Example 37, N-{2-[2-(4-Amidinophenyl)-ethyl]-1-methyl-benzimidazol-5-yl}-N-methyl-2-[4-(2-iodophenylamino)-piperid-1-yl]-acetamide, dihydrochloride], the IC50 lay in the range of 0.5 to 3 nM.

Turning to `CN(C(=O)CN1CCC(Nc2ccccc2C(F)(F)F)CC1)c1ccc2c(c1)nc(CCc1ccc(C(=N)N)cc1)n2C` [Example 38, N-{2-[2-(4-Amidinophenyl)-ethyl]-1-methyl-benzimidazol-5-yl}-N-methyl-2-[4-(2-trifluoromethylphenylamino)-piperid-1-yl]-acetamide, dihydrochloride], the IC50 was 4 to 30 nM.

For `CN(C(=O)CN1CCC(Nc2ccccc2OC(F)(F)F)CC1)c1ccc2c(c1)nc(CCc1ccc(C(=N)N)cc1)n2C` [Example 39, N-{2-[2-(4-Amidinophenyl)-ethyl]-1-methyl-benzimidazol-5-yl}-N-methyl-2-[4-(2-trifluoromethoxyphenylamino)-piperid-1-yl]-acetamide, dihydrochloride], the IC50 lay within 4 to 30 nM.

Consider `CN(C(=O)CN1CCC(Nc2ccccc2C(=N)N)CC1)c1ccc2c(c1)nc(CCc1ccc(C(=N)N)cc1)n2C` [Example 40, N-{2-[2-(4-Amidinophenyl)-ethyl]-1-methyl-benzimidazol-5-yl}-N-methyl-2-[4-(2-amidinophenylamino)-piperid-1-yl]-acetamide, dihydrochloride], for which the IC50 was in the range of 31 to 1000 nM.

For `CN(C(=O)CN1CCC(Nc2ccc3c(c2)Cc2ccccc2-3)CC1)c1ccc2c(c1)nc(CCc1ccc(C(=N)N)cc1)n2C` [Example 42, N-{2-[2-(4-Amidinophenyl)-ethyl]-1-methyl-benzimidazol-5-yl}-N-methyl-2-[4-(aminofluorene)-piperid-1-yl]-acetamide, dihydrochloride], the IC50 lay in the range of 4 to 30 nM.

For `CN(C(=O)CN1CCC(N(Cc2ccccc2)C2CCCN2)CC1)c1ccc2c(c1)nc(CCc1ccc(C(=N)N)cc1)n2C` (stereo not drawn) [Example 43, N-{2-[2-(4-Amidinophenyl)-ethyl]-1-methyl-benzimidazol-5-yl}-N-methyl-2-{4-[(N-benzyl)-2-pyrrolidylamino]-piperid-1-yl}-acetamide, dihydrochloride], the IC50 lay in the range of 4 to 30 nM.

For `Cn1c(CCc2ccc(C(=N)N)cc2)nc2cc(N(Cc3ccc(N)cc3)C(=O)CN3CCC(Nc4ccccc4)CC3)ccc21` [Example 44, N-{2-[2-(4-Amidinophenyl)-ethyl]-1-methyl-benzimidazol-5-yl}-N-[4-aminophenyl-methyl]-2-(4-phenylamino-piperid-1-yl)-acetamide, dihydrochloride], the IC50 lay in the range of 4 to 30 nM.

Take `Cn1c(CCc2ccc(C(=N)N)cc2)nc2cc(N(Cc3ccncc3)C(=O)CN3CCC(Nc4ccccc4)CC3)ccc21` [Example 45, N-{2-[2-(4-Amidinophenyl)-ethyl]-1-methyl-benzimidazol-5-yl}-N-[4-pyridylmethyl]-2-(4-phenylamino-piperid-1-yl)-acetamide, dihydrochloride]: the IC50 lay within 4 to 30 nM.

Regarding `Cn1c(CCc2ccc(C(=N)N)cc2)nc2cc(N(Cc3ccncc3)C(=O)CN3CCC(Nc4ccccn4)CC3)ccc21` [Example 46, N-{2-[2-(4-Amidinophenyl)-ethyl]-1-methyl-benzimidazol-5-yl}-N-[4-pyridylmethyl]-2-[4-(2-pyridylamino)-piperid-1-yl]-acetamide, dihydrochloride], the IC50 lay within 4 to 30 nM.

Regarding `Cn1c(CCc2ccc(C(=N)N)cc2)nc2cc(N(Cc3cccc([N+](=O)[O-])c3)C(=O)CN3CCC(Nc4ccccn4)CC3)ccc21` [Example 50, N-{2-[2-(4-Amidinophenyl)-ethyl]-1-methyl-benzimidazol-5-yl}-N-[3-nitrophenylmethyl]-2-[4-(2-pyridylamino)-piperid-1-yl]-acetamide, dihydrochloride], the IC50 was in the range of 4 to 30 nM.

Take `CN(C)c1ccc(CN(C(=O)CN2CCC(Nc3ccccn3)CC2)c2ccc3c(c2)nc(CCc2ccc(C(=N)N)cc2)n3C)c2ccccc12` [Example 51, N-{2-[2-(4-Amidinophenyl)-ethyl]-1-methyl-benzimidazol-5-yl}-N-[4-dimethylamino-naphth-1-ylmethyl]-2-[4-(2-pyridylamino)-piperid-1-yl]-acetamide, dihydrochloride]: the IC50 was in the range of 4 to 30 nM.

Turning to `Cn1c(CCc2ccc(C(=N)N)cc2)nc2cc(NC(=O)CN3CCC(Nc4ccccn4)CC3)ccc21` [Example 52, N-{2-[2-(4-Amidinophenyl)-ethyl]-1-methyl-benzimidazol-5-yl}-2-[4-(2-pyridylamino)-piperid-1-yl]-acetamide, dihydrochloride], the IC50 was 31 to 1000 nM.
